Reference: patent US6818445B2 (Synaptic Pharmaceutical Corporation, priority 1994, dated 2004)

Columns and labels:
[1] = target: human dopamine D3 receptor (Homo sapiens, UniProt P35462); assay: Binding to human dopamine D3 receptor, [3H]spiperone; details: cloned human receptor
human 5HT2 receptor = human 5HT2 receptor (Homo sapiens, UniProt P28223); assay: Binding to human 5HT2 receptor, [3H]ketanserin; details: cloned human receptor
human 5HT1Dβ receptor = human 5HT1Dβ receptor (Homo sapiens, UniProt P28222); assay: Binding to human 5HT1Dβ receptor, [3H]serotonin; details: cloned human receptor
Sequence of human 5HT1Dβ receptor (P28222 whole entry): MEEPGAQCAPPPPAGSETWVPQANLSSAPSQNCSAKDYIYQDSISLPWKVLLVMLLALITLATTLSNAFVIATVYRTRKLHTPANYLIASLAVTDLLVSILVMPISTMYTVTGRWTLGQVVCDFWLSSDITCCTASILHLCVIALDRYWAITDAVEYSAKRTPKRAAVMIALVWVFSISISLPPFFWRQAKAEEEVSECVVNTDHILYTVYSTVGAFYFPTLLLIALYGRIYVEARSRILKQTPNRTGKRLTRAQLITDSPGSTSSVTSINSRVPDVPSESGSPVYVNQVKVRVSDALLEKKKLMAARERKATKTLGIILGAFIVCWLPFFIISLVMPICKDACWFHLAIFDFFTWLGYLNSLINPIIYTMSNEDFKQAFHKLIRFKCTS

human α2A receptor = target: T1, human α2A receptor (Homo sapiens, UniProt P08913); assay: Binding to cloned human α2A adrenergic receptor, [3H]rauwolscine
T1 sequence (P08913 1-465): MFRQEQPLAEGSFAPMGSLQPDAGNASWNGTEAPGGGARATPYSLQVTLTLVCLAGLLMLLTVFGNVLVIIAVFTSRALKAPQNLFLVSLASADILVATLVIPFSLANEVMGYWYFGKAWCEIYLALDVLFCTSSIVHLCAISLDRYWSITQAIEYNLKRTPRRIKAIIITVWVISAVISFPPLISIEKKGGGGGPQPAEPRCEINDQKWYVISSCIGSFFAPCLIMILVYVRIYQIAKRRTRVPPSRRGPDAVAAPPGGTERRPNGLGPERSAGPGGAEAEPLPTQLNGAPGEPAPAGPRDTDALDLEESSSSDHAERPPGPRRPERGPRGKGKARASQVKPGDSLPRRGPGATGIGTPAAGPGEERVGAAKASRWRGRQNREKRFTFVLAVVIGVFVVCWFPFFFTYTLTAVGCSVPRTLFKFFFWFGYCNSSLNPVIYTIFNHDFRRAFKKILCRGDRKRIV

human α2B receptor = target: T2, human α2B receptor (Homo sapiens, UniProt P18089); assay: Binding to cloned human α2B adrenergic receptor, [3H]rauwolscine
T2 sequence (P18089 1-450): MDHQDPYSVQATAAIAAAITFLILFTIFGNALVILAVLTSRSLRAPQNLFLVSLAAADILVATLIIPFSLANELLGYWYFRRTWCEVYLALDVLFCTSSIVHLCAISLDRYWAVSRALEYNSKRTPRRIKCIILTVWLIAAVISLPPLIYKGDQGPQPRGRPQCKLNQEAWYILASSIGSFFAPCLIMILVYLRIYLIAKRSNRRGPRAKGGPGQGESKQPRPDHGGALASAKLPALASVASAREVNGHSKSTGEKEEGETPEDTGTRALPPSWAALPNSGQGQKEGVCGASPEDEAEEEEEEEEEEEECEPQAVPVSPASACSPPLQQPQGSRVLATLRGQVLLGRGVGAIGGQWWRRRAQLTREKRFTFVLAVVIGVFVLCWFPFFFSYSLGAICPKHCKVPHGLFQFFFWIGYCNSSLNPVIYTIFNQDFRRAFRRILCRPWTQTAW

human α2C receptor = target: T3, human α2C receptor (Homo sapiens, UniProt P18825); assay: Binding to cloned human α2C adrenergic receptor, [3H]rauwolscine
T3 sequence (P18825 1-462): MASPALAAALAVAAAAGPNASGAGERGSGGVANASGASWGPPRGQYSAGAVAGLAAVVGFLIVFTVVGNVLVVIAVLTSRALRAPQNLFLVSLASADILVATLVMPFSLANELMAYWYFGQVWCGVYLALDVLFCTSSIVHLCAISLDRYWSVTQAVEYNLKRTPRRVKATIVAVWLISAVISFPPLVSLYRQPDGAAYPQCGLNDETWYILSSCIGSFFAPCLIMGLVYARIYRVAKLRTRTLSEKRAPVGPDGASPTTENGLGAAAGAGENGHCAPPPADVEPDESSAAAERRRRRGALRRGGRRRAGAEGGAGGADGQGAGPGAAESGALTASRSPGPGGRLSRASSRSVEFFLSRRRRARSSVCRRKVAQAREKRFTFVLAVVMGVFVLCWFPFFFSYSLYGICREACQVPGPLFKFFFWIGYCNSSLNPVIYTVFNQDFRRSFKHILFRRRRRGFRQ

5HT1a receptor = target: T4, 5HT1a receptor (Homo sapiens, UniProt P08908); assay: Binding to cloned human 5HT1a receptor
T4 sequence (P08908 1-422): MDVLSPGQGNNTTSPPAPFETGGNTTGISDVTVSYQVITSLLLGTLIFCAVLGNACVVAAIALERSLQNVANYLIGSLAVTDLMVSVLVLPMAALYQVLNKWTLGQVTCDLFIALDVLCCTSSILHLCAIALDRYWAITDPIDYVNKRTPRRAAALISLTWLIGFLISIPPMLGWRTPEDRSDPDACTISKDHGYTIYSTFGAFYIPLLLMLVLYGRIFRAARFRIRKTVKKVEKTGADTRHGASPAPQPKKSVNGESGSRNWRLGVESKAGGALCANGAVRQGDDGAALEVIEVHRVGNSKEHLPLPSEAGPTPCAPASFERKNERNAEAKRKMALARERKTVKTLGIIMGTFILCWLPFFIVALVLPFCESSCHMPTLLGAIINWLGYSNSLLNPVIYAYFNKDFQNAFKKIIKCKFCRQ

[2] = tested on: NPY-induced feeding behavior in satiated rats; assay: NPY-induced food intake in satiated rats; assay type: in vivo, rat; details: compound 30 mg/kg i.p., then 300 pmole NPY i.c.v.; 4 hours after NPY
Method: The rats are individually housed in stainless steel cages and maintained on an 11:13 h light-dark cycle (lights off at 18:00 h) at a controlled temperature of 21-23° C. at all times. Water and food (NAFAG lab chow pellets NAFAG, Gossau, Switzerland) are available ad libidum.
The guide cannula is placed on the dura. Injection cannulas extend the guide cannulas −3.8 mm ventrally to the skull surface. Animals are allowed at least 4 days of recovery postoperatively before being used in the experiments. Cannula placement is checked postoperatively by testing all rats for their drinking response to a 50 ng intracerebroventricular (i.c.v.) injection of angiotensin II. Only rats which drink at least 2.5 ml of water within 30 min. after angiotensin II injection are used in the feeding studies.
All injections are made in the morning 2 hours after light onset. Peptides are injected in artificial cerebrospinal fluid (ACSF) in a volume of 5 μl.
Pellets are then removed from the cage subsequently at each selected time point and replaced with a new set of preweighed pellets. The food intake of animals treated with test compound may be calculated as a percentage of the food intake of control animals i.e., animals treated with vehicle. Alternatively, food intake for each group of animals subjected to a particular experimental condition may be expressed as the mean±S.E.M. Statistical analysis is performed by analysis of variance using the Student-Newman-Keuls test.
Food intake is reported as the mean±S.E.M. intake for a group of animals.

Sequence of human 5HT2 receptor (P28223 whole entry): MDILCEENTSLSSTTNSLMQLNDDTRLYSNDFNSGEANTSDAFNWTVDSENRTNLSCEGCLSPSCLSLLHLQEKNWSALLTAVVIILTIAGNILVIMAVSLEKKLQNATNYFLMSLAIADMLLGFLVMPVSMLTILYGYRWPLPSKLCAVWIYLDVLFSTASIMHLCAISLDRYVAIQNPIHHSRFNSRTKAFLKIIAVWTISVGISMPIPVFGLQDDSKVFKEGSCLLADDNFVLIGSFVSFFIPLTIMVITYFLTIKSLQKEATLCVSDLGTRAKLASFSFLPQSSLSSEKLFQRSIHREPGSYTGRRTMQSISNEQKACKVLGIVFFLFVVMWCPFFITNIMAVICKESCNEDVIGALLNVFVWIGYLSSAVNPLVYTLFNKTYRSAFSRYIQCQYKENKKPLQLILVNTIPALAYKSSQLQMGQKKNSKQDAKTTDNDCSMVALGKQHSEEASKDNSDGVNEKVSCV
Sequence of human dopamine D3 receptor (P35462 whole entry): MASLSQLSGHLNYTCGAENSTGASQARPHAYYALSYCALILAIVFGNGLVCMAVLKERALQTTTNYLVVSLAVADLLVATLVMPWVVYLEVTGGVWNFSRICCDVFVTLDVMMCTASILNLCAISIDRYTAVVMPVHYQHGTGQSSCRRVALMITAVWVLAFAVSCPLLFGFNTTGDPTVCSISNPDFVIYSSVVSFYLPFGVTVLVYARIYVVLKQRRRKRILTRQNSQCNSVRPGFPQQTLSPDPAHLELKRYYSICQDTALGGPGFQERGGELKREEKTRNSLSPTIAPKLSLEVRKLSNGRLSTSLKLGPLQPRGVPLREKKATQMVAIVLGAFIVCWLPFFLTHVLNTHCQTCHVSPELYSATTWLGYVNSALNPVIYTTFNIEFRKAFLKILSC

SMILES | Receptor (pKi) D3 [1] | Receptor (pKi) 5HT2 (human 5HT2 receptor) | Receptor (pKi) 5HT1Dβ (human 5HT1Dβ receptor) | Receptor (pKi) α2a (human α2A receptor) | Receptor (pKi) α2b (human α2B receptor) | Receptor (pKi) α2c (human α2C receptor) | Receptor (pKi) 5HT1a (5HT1a receptor) | Food intake (g) mean ± S.E.M., NPY + compound [2] [g]
Cl.O=[N+]([O-])c1ccccc1S(=O)(=O)NC[C@H]1CC[C@H](CNCC2CCc3ccccc3C2)CC1 (stereo partly drawn) [Compound 20] | 6.35 | 5.93 | 5.37 | 7.31 | 6.96 | 7.39 | – | –
Cl.Cl.Nc1ccccc1S(=O)(=O)NCC1CCC(CNCC2CCc3ccccc3C2)CC1 (stereo not drawn) [Compound 22] | – | 5.99 | 5.41 | 7.05 | 6.43 | 7.15 | 6.56 | –
Cl.O=S(=O)(NC[C@H]1CC[C@H](CNCC2CCc3ccccc3C2)CC1)c1cccc2ccccc12 (stereo partly drawn) [Compound 19] | 6.69 | 6.55 | – | 6.74 | 6.58 | – | 5.54 | 1.5 ± 0.6
